Experimental data published in patent US4888335A, “3-alkoxy-2-aminopropyl heterocyclic amines and their use as cardiovascular agents” (McNeilab, Inc., priority 1988, dated 1989).
Where a name gives a salt, the structure may show the parent alone.

Legend:
[1] = test system: Langendorff's isolated heart (coronary flow); assay: Langendorff isolated heart (increase in coronary flow); conditions: tested at 30.0 to 0.01 micromolar
Description: In addition to their utility in the treatment of hypertension, the compounds of formula (I) are useful in the treatment of the symptoms of angina pectoris by virtue of their ability to dilate coronary arteries. Their activity was measured using the "Langendorff's isolated heart" preparation. This test has been described in "Pharmacological Experiments on Isolated Preparations", Staff of the Department of Pharmacology, University of Edinbourgh, 2nd Ed., Churchill Livingstone, N.Y., 1970, pp 112-119. The test compounds were administered at concentrations of 30.0, 10.0, 3.0, 1.0, 0.3, 0.1, 0.03 and 0.01 micromolar (10^-6 molar). The minimum concentration EC30) needed to elicit a 30% increase in coronary flow is shown in Table I for compounds of formula (I).

[2] = test system: spontaneously hypertensive rats (mean arterial pressure); assay: Spontaneously Hypertensive Rat (SHR) test, fall in mean arterial pressure; assay type: in vivo; conditions: active if fall >15 mm of Hg
Description: The activity of compounds of formula (I) for the treatment of hypertension was determined using the Spontaneously Hypertensive Rat (SHR) test as described below. Spontaneously Hypertensive Rat Test In this test, the arterial pressure of adult spontaneously hypertensive rats (Charles River) is monitored directly via an aortic cannula. The SH rats are anesthetized with an inhalation anesthetic (ether). The left carotoid artery is isolated and cannulated. The tip of the cannula is advanced to the aorta and the cannula is exteriorized behind the neck at the level of the scapula. Animals are placed in individual cages, allowed to recover from the anesthetic and are kept unrestrained. The arterial cannula is connected to a pressure transducer which is attached to a recorder. The test compounds are administered to at least 3 rats at doses selected in the range of 0.1 to 100 mg/kg of body weight by i.p. or p.o. routes of administration. The arterial pressure and heart rate are monitored for a minimum of 24 hr. A test compound is considered to be active as an antihypertensive agent if the mean arterial pressure (MAP) indicates a fall (δMAP) of >15 mm of Hg. Each animal serves as its own control.

Structure (SMILES)	Langendorff EC30 (minimum concentration needed to elicit a 30% increase in coronary flow) [1]	SHR δMAP (change in mean arterial pressure) ([2]; 10 mg/kg i.p.)	SHR δMAP (change in mean arterial pressure) ([2]; 30 mg/kg i.p.)	SHR δMAP (change in mean arterial pressure) ([2]; 30 mg/kg p.o.)
CC(C)COCC(CN1Cc2ccccc2Cc2ccccc21)N1CCCC1 (centres unmarked) [Example 1, 5,6-Dihydro-5-[3-(2-methylpropoxy)-2-(1-pyrrolidinyl)-propyl]-11H -dibenz[b,e]azepine]	.013 10^-6 M	-37 mm of Hg	-65 mm of Hg	–
CC(C)COCC(CN1Cc2ccccc2CCc2ccccc21)N1CCCC1 (stereo not drawn) [Example 2b, 5,6,11,12-Tetrahydro-5-beta-[3-(2-methylpropoxy)-2-(1-pyrrolidinyl)propyl]dibenz[b,f]azocine Hydrate (5:1)]	.150 10^-6 M	–	–	-25 mm of Hg
CC(C)(C)COCC(CN1Cc2ccccc2Cc2ccccc21)N1CCCC1.O=C(O)/C=C/C(=O)O (centres unmarked) [Example 3c, 5,6-Dihydro-5-[3-(2,2-dimethylpropoxy)-2-(1-pyrrolidinyl)propyl]-11H-dibenz[b,e]azepine (E)-2-Butenedioate]	.004 10^-6 M	-54 mm of Hg	–	-2 mm of Hg
CC(C)COCC(CN1c2ccccc2CCc2ccccc21)N1CCCC1 (centres unmarked) [Example 4, 10,11-dihydro-5-[3-(2-methylpropoxy)-2-(1-pyrrolidinyl)propyl]-5H-dibenz[b,f]azepine]	.011 10^-6 M	-65 mm of Hg	–	–
CC(C)(C)COCC(CN1Cc2ccccc2Oc2ccccc21)N1CCCC1.O=C(O)/C=C/C(=O)O (centres unmarked) [Example 5b, 10,11-Dihydro-10-[3-(2,2-dimethylpropoxy)-2-(1-pyrrolidinyl)propyl]dibenz[b,f][1,4]oxazepine (E)-2-Butenedioate]	.04 10^-6 M	-70 mm of Hg	–	-20 mm of Hg
CC(C)(C)COCC(CN1c2ccccc2C=Cc2ccccc21)N1CCCC1 (centres unmarked) [Example 6, 5-[3-(2,2 Dimethylpropxy)-2-(1-pyrrolidinyl)propyl]-5H-dibenz[b,f]azepine Hydrochloride]	.001 10^-6 M	-27 mm of Hg	–	–
CC1(COCC(CN2c3ccccc3Oc3ccccc32)N2CCCC2)CCCCC1.Cl (centres unmarked) [Example 7d, 10-[3-[(1-Methylcyclohexyl)methoxy]-2-(1-pyrrolidinyl)-propyl]-10H-phenoxazine Hydrochloride (1:1)]	.012 10^-6 M	–	–	-24 mm of Hg
CC1(COCC(CN2c3ccccc3C=Cc3ccccc32)N2CCCC2)CCCCC1 (centres unmarked) [Example 8, 5-[3-[(1-methylcyclohexyl)methoxy]-2-(1-pyrrolidinyl)propyl]-5H-dibenz[b,f]azepine]	.0037 10^-6 M	–	–	-12 mm of Hg
CC(C)COCC(CN1c2ccccc2Sc2ccccc21)N1CCCC1 (centres unmarked) [Example 9, 10-[3-(2-Methylpropoxy)-2-(1-pyrrolidinyl)propyl]-10H-phenothiazine]	.30 10^-6 M	-22 mm of Hg	–	-19 mm of Hg
C=C(C)COCC(CN1c2ccccc2C=Cc2ccccc21)N1CCCC1 (centres unmarked) [Example 10, 5-[3-(2-methyl-2-propenoxy)-2-(1-pyrrolidinyl)propyl]-5H-dibenz[b,f]azepine]	–	–	–	-25 mm of Hg
